According to patent publication US20200247761A1, “SULFONAMIDE OR AMIDE COMPOUNDS, COMPOSITIONS AND METHODS FOR THE PROPHYLAXIS AND/OR TREATMENT OF AUTOIMMUNE, INFLAMMATION OR INFECTION RELATED DISORDERS” (TAIWANJ PHARMACEUTICALS CO., LTD, priority 2017, published 2020):
Like-named read-outs stand apart in the source and are kept apart here.

Assays:
Format in all cases: cell-based
[1] = target: T1, Toll-like receptor 4 (TLR4) (Homo sapiens, UniProt O00206); assay: TLR4 activity: NF-κB-inducible SEAP reporter in LPS-stimulated TLR4-expressing HEK293 cells; details: for inhibition at 100 µM: Test Con. 100 μM; for inhibition at 100 µM / inhibition at 10 µM / inhibition at 20 µM: LPS 10 ng/ml, 16-24 hours, HEK293 cells expressing TLR4, read-out: TLR-4 inhibition (%) mean; for activity towards TLR-4 (in words): summary of Table 1 (10, 20 or 100 μM); for inhibition at 10 µM: Test Con. 10 μM; for inhibition at 20 µM: Test Con. 20 μM
T1 construct: expressed in transfected cells; host or cells: HEK293 cells engineered to express TLR4
T1 sequence (O00206 24-839, species assumed): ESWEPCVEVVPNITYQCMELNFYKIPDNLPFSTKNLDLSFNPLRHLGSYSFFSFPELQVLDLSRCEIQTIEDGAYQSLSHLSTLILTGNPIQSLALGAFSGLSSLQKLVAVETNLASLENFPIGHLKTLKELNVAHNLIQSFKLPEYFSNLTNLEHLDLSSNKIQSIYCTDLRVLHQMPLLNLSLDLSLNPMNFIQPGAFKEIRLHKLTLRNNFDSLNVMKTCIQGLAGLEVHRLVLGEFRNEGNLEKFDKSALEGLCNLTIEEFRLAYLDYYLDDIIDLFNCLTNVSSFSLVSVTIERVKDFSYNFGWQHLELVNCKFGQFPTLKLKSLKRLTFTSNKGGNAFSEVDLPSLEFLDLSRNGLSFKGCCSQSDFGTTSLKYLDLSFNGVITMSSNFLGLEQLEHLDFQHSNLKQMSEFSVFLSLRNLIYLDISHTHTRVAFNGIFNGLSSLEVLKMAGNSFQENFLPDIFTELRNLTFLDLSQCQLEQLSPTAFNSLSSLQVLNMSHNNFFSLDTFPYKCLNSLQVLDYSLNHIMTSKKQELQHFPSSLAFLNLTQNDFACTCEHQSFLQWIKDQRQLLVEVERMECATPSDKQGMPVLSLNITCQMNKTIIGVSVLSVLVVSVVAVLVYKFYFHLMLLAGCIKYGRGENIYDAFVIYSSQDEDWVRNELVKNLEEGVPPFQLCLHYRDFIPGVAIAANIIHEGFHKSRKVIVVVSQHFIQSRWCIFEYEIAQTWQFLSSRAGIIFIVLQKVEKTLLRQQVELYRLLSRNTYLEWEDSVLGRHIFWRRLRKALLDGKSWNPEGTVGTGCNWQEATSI
T1 sequence (Q9Y6Y9 17-160 partner limits assumed, species assumed): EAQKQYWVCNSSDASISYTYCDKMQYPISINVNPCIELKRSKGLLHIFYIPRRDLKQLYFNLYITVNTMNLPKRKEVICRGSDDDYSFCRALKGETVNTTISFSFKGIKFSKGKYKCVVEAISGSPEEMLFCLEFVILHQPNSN
Protocol: Stimulation of the Toll-like receptor 4 (TLR4) was determined by assessing activation of the transcription factor NF-κB in HEK293 cells that were engineered to express TLR4. Assessment of TLR4 stimulation was based on the use of an NE-κB-inducible secreted alkaline phosphatase (SEAP) reporter system in which the SEAP reporter was under the control of a promoter inducible by NF-κB. Thus, the degree of activation of TLR4 can be indirectly quantified spectrophotometrically by measuring the amount of the SEAP reporter that is produced.
The TLR4-expressing cells were plated in HEK-Blue Detection (Invivogen, San Diego, Calif.) medium in a 96-well plate (25,000-50,000 cells/well). The cells were stimulated with lipopolysaccharides (LPS) alone or in combination with the compound of Example 1. Cell culture without LPS and the compound of Example 1 was defined as baseline control. To test whether the compound of Example 1 could block that activation of the TLR4, the cells were treated with the designated compound (10, 20 or 100 μM) and LPS (final conc. 10 ng/ml/well). After an incubation period (16-24 hours) at 37° C. in a CO2 incubator, the signals of individual samples in 96-well plates were detected at O.D.650 nm with a Molecular Devices SpectraMax i3 Imaging Cytometer. The TLR4 activity was expressed in percentage of LPS alone-stimulated cells minus baseline control.

HEK293 cells = assay: Cell viability (MTT) of the TLR4-expressing HEK293 cells; details: percentage of viable LPS-stimulated cells
Protocol: (§1) RAW264.7 cells (1.6×10^5 cells/well) or HEK 293 cells (2.5-5.0×10^4 cells/well) were seeded in 96-well plate overnight and treated with different compounds for 16-24 hours. Cells' growth were determined by MTT-based colorimetric assays. Viability of the test cells treated with vehicle (0.5% DMSO) only was defined as 100% viable. Survival of cells after treatment with DETDs was calculated using the following formula: viable cell number (%)=OD570 (treated cell culture)/OD570 (vehicle control)×100.
(§2) The cell viability assay was performed by the MTT method. Cells were incubated with 45 μl of 5 mg/ml MTT for 1 hour at 37° C., and 150 μl of DMSO was added at the end of culture to dissolve the crystals. The signals of individual samples in 96-well plates were detected at O.D.570 nm with a Molecular Devices SpectraMax i3 Imaging Cytometer. Cell viability was expressed in percentage of viable LPS-stimulated cells.

[2] = test system: mTNF-α secretion from LPS-stimulated RAW264.7 monocytes; assay: LPS induced mTNF-α release from RAW264.7 cells (ELISA); details: Mus musculus
Protocol: To confirm whether the inhibitory effect of the selected compounds of example 2.1 (i.e., Compounds 12, 15, 19, 20, 22, 24, 28, 30, 32, 34, 36, 38, 40, 42, 44, 45, 49, 50, 52 and 70) translates to anti-inflammation, they were further tested to see if any of them may suppress mTNF-α secretion from lipopolysaccharide (LPS)-stimulated RAW264.7 monocytes.
To this purpose, RAW264.7 cells were seeded at 1.6×10^5 cells/well into 96-well culture plates. Test compounds (i.e., Compounds 12, 15, 19, 20, 22, 24, 28, 30, 32, 34, 36, 38, 40, 42, 44, 45, 49, 50, 52 and 70, respectively at 10 μM) were added into the culture plates in triplicate and co-cultured at 37° C. in 5% CO2 for 30 minutes. LPS (final conc. 10 ng/ml/well) was then added into the culture plates and the cells were incubated for another 4 hours. At the end of culture, the cultured media were harvested for mTNF-α quantification by ELISA with commercial assay kits (R&D Systems, Minneapolis, Minn.) following the manufacturer's protocol. Signals of the individual samples in 96-well plates were detected at O.D.450 nm/570 nm with a Molecular Devices SpectraMax i3 Imaging Cytometer. The mTNF-α activity was expressed in percentage of viable LPS-stimulated cells without test compound treatment.

RAW264.7 cells = assay: Cell viability (MTT) of RAW264.7 cells; details: for Cell Viability (%) mean: Test Con. 10 μM, MTT, RAW264.7 cells, percentage of viable LPS-stimulated cells; for toxic activity toward RAW264.7 cells (in words): Table 2, 10 μM
Protocol: as §1
as §2, with “method, in which cells” for “method. Cells”

[3] = RAW264.7, Table 2, 10 μM, read-out: inhibition of LPS induced mTNF-α release from RAW264.7 cells
[4] = Test Con. 10 μM, LPS 10 ng/ml, 4 hours, RAW264.7 cells, read-out: mTNF-α inhibition (%) mean

Row | Compound | inhibition at 100 µM [1] | activity towards TLR-4 (in words) [1] | inhibition at 10 µM [1] | Cell Viability (%) mean (HEK293 cells; Test Con. 10 μM) | inhibition at 10 µM [2, 3] | inhibition at 10 µM [2, 4] | Cell Viability (%) mean (RAW264.7 cells) | inhibition at 20 µM [1] | Cell Viability (%) mean (HEK293 cells; Test Con. 20 μM) | toxic activity toward RAW264.7 cells (in words) (RAW264.7 cells)
1 | COC(=O)C1=CCN(CC(=O)Nc2ccc(F)cc2)CC1 [Compound 3] | 6.8% | mild or negligible activity |  |  |  |  |  |  |  | 
2 | C=CC(=O)N1CCN(CC(=O)Nc2ccc(F)cc2)CC1 [Compound 6] | 17.8% | mild or negligible activity |  |  |  |  |  |  |  | 
3 | C=CC(=O)N1CCCc2cccc(S(=O)(=O)Nc3ccc(F)cc3Cl)c21 [Compound 12] |  | strong antagonist | 98.9% | 72% | 85 to 100% | 100% | 25.5% |  |  | 
4 | C/C=C/C(=O)N1CCCc2cccc(S(=O)(=O)Nc3ccc(F)cc3Cl)c21 [Compound 13] |  | mild or negligible activity |  |  |  |  |  | 10.9% | 86.6% | 
5 | C=CC(=O)N1CCCc2cccc(S(=O)(=O)Nc3ccc(F)cc3F)c21 [Compound 15] |  | strong antagonist | 100% | 84.1% | 85 to 100% | 94.7% | 52.4% |  |  | 
6 | O=S(=O)(Nc1ccc(F)cc1Cl)c1cccc2c1N(S(=O)(=O)CCl)CCC2 [Compound 16] |  | mild or negligible activity |  |  |  |  |  | 18% | 96.5% | 
7 | C=CC(=O)N(c1ccc(F)cc1Cl)S(=O)(=O)c1ccccc1 [Compound 19] |  | strong antagonist | 100% | 80% | 85 to 100% | 96.1% | 38.1% |  |  | 
8 | C=C(C)C(=O)N(c1ccc(F)cc1Cl)S(=O)(=O)c1ccccc1 [Compound 20] |  | moderate inhibitory activity | 60.1% | 90.4% | ~70% | 70.9% | 100.0% |  |  | negligible to no toxic activity
9 | C=CC(=O)N(c1ccc(F)cc1Cl)S(=O)(=O)c1ccccc1[N+](=O)[O-] [Compound 22] |  | moderate inhibitory activity | 63% | 109.9% | ~40% | 45.7% | 96.4% |  |  | negligible to no toxic activity
10 | C=CC(=O)N(c1ccc(F)cc1Cl)S(=O)(=O)c1ccccc1C(=O)OC [Compound 24] |  | strong antagonist | 100% | 88.5% | 85 to 100% | 96% | 54.5% |  |  | 
11 | C=CC(=O)N(c1ccc(F)cc1Cl)S(=O)(=O)c1ccccc1OC(F)(F)F [Compound 26] |  | mild or negligible activity | 10.7% | 86.8% |  |  |  |  |  | 
